Measured values reported in patent US11485751B2, “Apramycin derivatives” (WAYNE STATE UNIVERSITY, priority 2017, dated 2022).
In brackets after ≈: the same amount, converted by molar mass.

How the values were obtained:
[1] = tested on: AG033 P. aer. APH(3′)-II AAC(6′)-I; experiment: Antibacterial activity, clinical isolate AG033; type: cell-based; set-up: unit not given here
Procedure, shortened: (§1)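 Compounds are serially diluted in liquid medium in microplates, bacteria are added, and the lowest concentration preventing growth is recorded as the MIC (CLSI procedure).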

[2] = tested on: APH(3′, 5″) resistance determinant; experiment: Susceptibility to the APH(3′, 5″) resistance determinant; type: cell-based
Source text: (§2) Minimal inhibitory concentrations (MIC) have been determined by broth microdilution assays (CLSI. Methods for Dilution Antimicrobial Susceptibility Tests for Bacteria That Grow Aerobically; Approved Standard—Tenth Edition. CLSI document M07-A10. Wayne, Pa.: Clinical and Laboratory Standards Institute; 2015.).
The introduction of a formamido group results in compounds that display increased selectivity for the bacterial ribosome over the mitochondrial (wild type and A1555G mutant) ribosomes, predictive of reduced ototoxicity.

[3] = tested on: clinical isolates carrying APH(3′)-VI; experiment: MIC broth microdilution, APH(3′)-VI; type: cell-based; settings: IMM Univ. Zurich
Source text: as §2
(§3) Minimal inhibitory concentrations (MICs, […]) against clinical isolates from Institute of Medical Microbiology, Univ. Zurich, and the IC50 values for bacterial, human mitochondrial and human cytosolic ribosomes are indicated.

[4] = tested on: Engineered E. coli AG103 armA; experiment: Activity against G1405-methylated 16S-rRNA, E. coli AG103 armA; type: cell-based
Procedure, shortened: (§4)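 Susceptibility was measured as minimal inhibitory concentration using a standardized broth microdilution protocol (CLSI document M07-A10).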

[5] = tested on: AG038 MRSA; experiment: Antibacterial activity, clinical isolate AG038; type: cell-based; set-up: unit not given here
Procedure, shortened: as §1

[6] = tested on: AG163 E. coli APH(3′)-I; experiment: Antibacterial activity, clinical isolate AG163; type: cell-based
Source text: as §2
Table 4 and 5 show the antibacterial activity of the compounds of the invention against bacterial reference strains (table 4) and against representative clinical isolates (table 5).

[7] = tested on: AG173 E. coli AAC(3)-IV; experiment: Antibacterial activity, clinical isolate AG173; type: cell-based
Procedure, shortened: as §1

[8] = tested on: Engineered E. coli pH426 rmtC; experiment: Activity against G1405-methylated 16S-rRNA, E. coli pH426 rmtC; type: cell-based
Procedure, shortened: as §4

[9] = tested on: AG001 E. coli WT; experiment: Antibacterial activity, clinical isolate AG001; type: cell-based; set-up: unit not given here
Procedure, shortened: as §1

[10] = tested on: AG031 P. aer. APH(3′)-II; experiment: Antibacterial activity, clinical isolate AG031; type: cell-based; set-up: unit not given here
Procedure, shortened: as §1

[11] = tested on: AG055 E. coli WT; experiment: Antibacterial activity, clinical isolate AG055; type: cell-based; set-up: unit not given here
Procedure, shortened: as §1

[12] = tested on: Engineered E. coli pH427 rmtF; experiment: Activity against G1405-methylated 16S-rRNA, E. coli pH427 rmtF; type: cell-based
Procedure, shortened: as §4

[13] = tested on: AG003 E. coli AAC(3)-II; experiment: Antibacterial activity, clinical isolate AG003; type: cell-based
Procedure, shortened: as §1

[14] = tested on: clinical isolates carrying APH(3′)-III; experiment: MIC broth microdilution, APH(3′)-III; type: cell-based; settings: IMM Univ. Zurich
Source text: as §2, §3

[15] = tested on: bacterial ribosomes; experiment: in-vitro translation assay, bacterial ribosomes; type: biochemical
Procedure, shortened: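 Inhibitory potency was determined as IC50 in in-vitro translation systems based on bacterial ribosomes, human chimeric (mitochondrial-type) ribosomes or rabbit reticulocyte (cytosolic) ribosomes.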

[16] = tested on: AG215, Klebsiella pneumonia; experiment: MIC reference strain AG215; type: cell-based; settings: Klebsiella pneumoniae, reference strain; read-out: MIC AG215 K. pneumonia
Procedure, shortened: (§5)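 Compounds serially diluted in broth, bacteria added, growth inhibition scored; the lowest inhibitory concentration is taken as MIC, following CLSI procedures.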

[17] = tested on: AG220, Pseudomonas aeruginosa ATCC27853; experiment: MIC reference strain AG220; type: cell-based; settings: Pseudomonas aeruginosa, ATCC27853, reference strain ATCC27853; read-out: MIC AG220 P. aeruginosa
Procedure, shortened: as §5

[18] = tested on: AG032 P. aer. APH(3′)-II; experiment: Antibacterial activity, clinical isolate AG032; type: cell-based; set-up: unit not given here
Procedure, shortened: as §1

[19] = tested on: clinical isolates carrying AAC(3)-IV; experiment: MIC broth microdilution, AAC(3)-IV; type: cell-based; settings: for MIC: clinical isolates, IMM Univ. Zurich, AAC(3)-IV, read-out: MIC AAC(3)-IV
Procedure, shortened: (§6)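 Clinical isolates supplied by the Zurich Institute of Medical Microbiology were tested for MIC (μg/ml) using CLSI M07-A10 broth microdilution.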

[20] = tested on: AG290, Enterobacter cloacae; experiment: MIC reference strain AG290; type: cell-based; settings: Enterobacter cloacae; reference strain; read-out: MIC AG290 E. cloacae
Procedure, shortened: as §5

[21] = tested on: clinical isolates carrying APH(3′)-I; experiment: MIC broth microdilution, APH(3′)-I; type: cell-based; settings: IMM Univ. Zurich
Source text: as §2, §3

[22] = tested on: clinical isolates carrying APH(3′)-II; experiment: MIC broth microdilution, APH(3′)-II; type: cell-based; settings: clinical isolates, IMM Univ. Zurich; APH(3′)-II; read-out: MIC APH(3′)-II
Source text: as §2, §3

[23] = tested on: human mitochondrial ribosomes; experiment: in-vitro translation assay, human mitochondrial (human chimeric) ribosomes; type: biochemical
Procedure, shortened: (§7)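 Translation inhibition is measured in vitro with isolated ribosomes, and IC50 derived. The human cytosolic values actually use rabbit reticulocyte ribosomes, and the mitochondrial values use human chimeric ribosomes.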

[24] = tested on: AG212, Escherichia coli ATCC25922; experiment: MIC reference strain AG212; type: cell-based; settings: Escherichia coli; reference strain ATCC25922; read-out: MIC AG212 E. coli
Procedure, shortened: as §5

[25] = tested on: Engineered E. coli pH424 armA; experiment: Activity against G1405-methylated 16S-rRNA, E. coli pH424 armA; type: cell-based
Procedure, shortened: as §4

[26] = tested on: AG225, Acinetobacter baumannii pittii; experiment: MIC reference strain AG225; type: cell-based; settings: Acinetobacter baumannii, reference strain; read-out: MIC AG225 A. baumannii
Procedure, shortened: as §5

[27] = tested on: Engineered E. coli pH430 WT; experiment: Activity, engineered E. coli pH430 WT; type: cell-based; settings: wild type
Procedure, shortened: as §4

[28] = tested on: AG042 MRSA AAC(6′)-I ANT(4′)-I APH(2′); experiment: Antibacterial activity, clinical isolate AG042; type: cell-based; set-up: unit not given here
Procedure, shortened: as §1

[29] = tested on: human cytosolic ribosomes; experiment: in-vitro translation assay, human cytosolic ribosomes; type: biochemical
Procedure, shortened: as §7

[30] = tested on: AG039 MRSA AAC(6′)-I ANT(4′)-I; experiment: Antibacterial activity, clinical isolate AG039; type: cell-based
Procedure, shortened: as §1

[31] = tested on: Engineered E. coli pH425 rmtB; experiment: Activity against G1405-methylated 16S-rRNA, E. coli pH425 rmtB; type: cell-based
Procedure, shortened: as §4

[32] = tested on: isolates carrying apmA; experiment: MIC broth microdilution, apmA; type: cell-based; settings: apmA resistance gene
Procedure, shortened: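 Clinical isolates carrying apmA, from the University of Zurich Institute of Medical Microbiology, were tested by broth microdilution following CLSI M07-A10; values are MICs in μg/ml.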

[33] = tested on: eukaryotic ribosomes; experiment: in-vitro translation assays, bacterial versus eukaryotic ribosomes; type: biochemical
Source text: IC50 values for bacterial, human chimeric, and rabbit reticulocyte ribosomes have been determined by in-vitro translation assays as described previously (Proc. Nat. Ac. Sci USA 2012, 109(27):10984-10989).

[34] = tested on: ATCC19977 M. abcessus; experiment: MIC reference strain ATCC19977; type: cell-based; settings: read-out: MIC ATCC19977 M. abcessus
Procedure, shortened: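 Susceptibility was tested per CLSI aerobic dilution protocol using microbroth format, with the MIC taken as the end point.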

[35] = tested on: WT clinical isolates; experiment: MIC broth microdilution, WT; type: cell-based; settings: read-out: MIC WT, clinical isolates, IMM Univ. Zurich; wild type
Procedure, shortened: as §6

Row | Structure (SMILES) | Antibacterial activity AG033 P. aer. APH(3′)-II AAC(6′)-I [1] | Activity E. coli AG103 armA [4] | Antibacterial activity AG038 MRSA [5] | Antibacterial activity AG163 E. coli APH(3′)-I [6] | Antibacterial activity AG173 E. coli AAC(3)-IV [7] | Activity E. coli pH426 rmtC [8] | Antibacterial activity AG001 E. coli WT [9] | Antibacterial activity AG031 P. aer. APH(3′)-II [10] | Antibacterial activity AG055 E. coli WT [11] | Activity E. coli pH427 rmtF [12] | Antibacterial activity AG003 E. coli AAC(3)-II [13] | IC50 [15] | MIC [16] | MIC [17] | Antibacterial activity AG032 P. aer. APH(3′)-II [18] | MIC [19] | MIC [20] | IC50 [23] | MIC [24] | Activity E. coli pH424 armA [25] | further results
1 | CNC1C(OC2OC(CO)C(N)C(O)C2O)OC2CC(N)C(OC3C(N)CC(N)C(O)C3OC3OC(CO)C(OC4OC(CN)C(O)C(O)C4N)C3O)OC2C1O (stereo not drawn) [DC138, 5-O-β-(Paromobiosyl) apramycin] | 64 | <0.125 | 2-4 | 8 | 1-2 | 1 | 4 | 32-64 | 8 | 1 | 4 | 0.1 µM | 1 µg/mL | 16 µg/mL | 64 | > 32 µg/mL | 2 µg/mL | 2.2 µM | 2 µg/mL | 1 | susceptibility to the APH(3′, 5″) resistance determinant [2]: susceptible; MIC [3]: 4 µg/mL (≈ 4.81 µM); MIC [14]: 1 to 2 µg/mL (≈ 1.2 to 2.4 µM); activity against the IMM clinical isolates carrying the gene for AAC(3)-IV [19]: excellent antiribosomal and antibacterial activity; MIC [21]: 16 µg/mL (≈ 19.2 µM); MIC [22]: 2 µg/mL (≈ 2.4 µM); MIC [26]: 4 µg/mL; Activity E. coli pH430 WT [27]: 2; Antibacterial activity AG042 MRSA AAC(6′)-I ANT(4′)-I APH(2′) [28]: 2; IC50 [29]: 18 µM; Antibacterial activity AG039 MRSA AAC(6′)-I ANT(4′)-I [30]: 2-4; Activity E. coli pH425 rmtB [31]: 1
2 | CNC1C(OC2OC(CO)C(N)C(O)C2O)OC2CC(N)C(OC3C(N)CC(N)C(OCCO)C3O)OC2C1O (centres unmarked) [DC167, 6-O-(2-Hydroxyethyl)-apramycin] | 64-128 | 4 | 16-32 | 8-16 | >128 | 16 | 16 | 32-64 | 16 | 16 | 16 | 0.18 µM | 4 µg/mL | 32 µg/mL | 32-64 | > 32 µg/mL | 8 µg/mL | 379 µM | 16 µg/mL | 8 | MIC [32]: > 64 µg/mL; target specificity for bacterial versus human rRNA [33]: increased target specificity; MIC [34]: 2 µg/mL (≈ 3.43 µM); MIC [35]: 8 µg/mL (≈ 13.7 µM); MIC [26]: 16 µg/mL; Activity E. coli pH430 WT [27]: 8; Antibacterial activity AG042 MRSA AAC(6′)-I ANT(4′)-I APH(2′) [28]: 64; IC50 [29]: 382 µM; Antibacterial activity AG039 MRSA AAC(6′)-I ANT(4′)-I [30]: 16-32; Activity E. coli pH425 rmtB [31]: 16
